Assay results as given in patent US4405642A, “Method for treatment or prophylaxis of cardiac disorders” (American Hospital Supply Corporation, priority 1980, dated 1983).
Structures can show the parent of a compound that is named as a salt.

What was measured:
[1] = molecular target: T1, β-adrenergic receptors (guinea pig right atria) (Cavia porcellus, UniProt H0W3H1); assay: β-blocking activity in vitro, guinea pig right atria (rate response to isoproterenol); assay type: cell-based; settings: vs isoproterenol, guinea pig right atria, 60 minute incubation, 37° C.; for Kb: read-out: pA2 Atria (converted)
T1 construct: Atria were allowed to beat spontaneously under a loading tension; from tissue; host or cells: guinea pig right atria (isolated, spontaneously beating)
T1 sequence (H0W3H1 1-470): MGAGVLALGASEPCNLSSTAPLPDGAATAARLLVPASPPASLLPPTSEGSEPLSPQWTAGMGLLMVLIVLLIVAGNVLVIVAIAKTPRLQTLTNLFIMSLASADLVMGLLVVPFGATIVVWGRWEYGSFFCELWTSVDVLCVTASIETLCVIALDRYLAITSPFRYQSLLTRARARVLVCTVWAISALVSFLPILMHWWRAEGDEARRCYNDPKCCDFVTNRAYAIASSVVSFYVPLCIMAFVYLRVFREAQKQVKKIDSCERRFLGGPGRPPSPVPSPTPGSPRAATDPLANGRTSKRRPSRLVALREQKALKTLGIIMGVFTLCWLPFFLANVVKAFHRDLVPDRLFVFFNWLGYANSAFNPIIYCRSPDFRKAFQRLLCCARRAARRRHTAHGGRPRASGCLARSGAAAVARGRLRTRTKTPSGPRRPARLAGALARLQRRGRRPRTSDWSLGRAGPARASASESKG
Method: (§1) Each tissue was suspended between a fixed glass rod and a Statham® Universal Transducer connected to a Beckman® recorder. Atria were allowed to beat spontaneously under a loading tension of approximately 0.5 gm. Instrinsic depressant or stimulant activity was determined for each compound by progressively increasing concentrations in the tissue baths at 60-minute intervals. Tissues were not washed between increments. The maximum concentration showing little or no cardiodepressant activity was chosen for blockade experiments. Changes in rate in response to isoproterenol were measured in the absence and presence of test compounds. Spiral strips of guinea pig trachea were suspended under 5 gm resting tension and incubated with phentolamine, tropolone and cocaine. Active tension was generated by addition of carbachol (3.0×10^-7 M) and decreases in tension in response to isoproterenol were quantitated. Cumulative concentration-response curves were produced with isoproterenol both before and after 60 minute incubation of test compounds with atria and trachea. The blocking potency of test compounds was estimated by computing pA2 values (-log […]) by the method of Furchgott, The Pharmacological Differentiation of Adrenergic Receptors, Ann. […] The degree of cardioselectivity was estimated from the ratio, KB trachea/KB atria (10^(pA.sbsp.2^atria-pA.sbsp.2^trachea)). A ratio greater than one indicates cardioselectivity. Test drugs were dissolved in distilled water and added to the bath (30 ml) in a volume of 10 or 100 μl.

[2] = molecular target: T2, β-adrenergic receptors (guinea pig tracheal strips) (Cavia porcellus, UniProt Q8K4Z4); assay: β-blocking activity in vitro, guinea pig tracheal strips (tension response to isoproterenol); assay type: cell-based; settings: vs isoproterenol, 60 minute incubation, 37° C.; for Kb: read-out: pA2 Trachea (converted)
T2 construct: from tissue; host or cells: guinea pig trachea (isolated spiral strips)
T2 sequence (Q8K4Z4 whole entry): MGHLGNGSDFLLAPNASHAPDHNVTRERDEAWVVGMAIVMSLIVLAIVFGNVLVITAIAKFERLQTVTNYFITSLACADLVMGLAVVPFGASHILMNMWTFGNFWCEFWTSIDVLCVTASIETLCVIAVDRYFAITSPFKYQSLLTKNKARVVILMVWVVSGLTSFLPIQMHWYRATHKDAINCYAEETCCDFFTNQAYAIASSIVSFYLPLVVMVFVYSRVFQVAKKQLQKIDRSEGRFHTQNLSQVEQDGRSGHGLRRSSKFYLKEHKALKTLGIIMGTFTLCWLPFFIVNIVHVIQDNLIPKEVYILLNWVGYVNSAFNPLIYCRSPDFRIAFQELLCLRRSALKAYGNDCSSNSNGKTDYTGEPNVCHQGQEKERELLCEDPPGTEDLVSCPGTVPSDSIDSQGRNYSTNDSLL
Method: as §1

[3] = test system: heart rate response to isoproterenol; assay: Duration of beta-blockade in vivo, anesthetized dogs, 40-minute infusion; parameters: species or system dog; settings: for Recovery Times 50%: 50% recovery of heart rate after 40-minute infusion; for Recovery Times 50% / Recovery Times 80% / Recovery Times 100%: normalized to 50% inhibition, dog; for Recovery Times 80%: 80% recovery of heart rate after 40-minute infusion; for Recovery Times 100%: 100% recovery of heart rate after 40-minute infusion; for ED50: Canis lupus familiaris, iv, 40 min, read-out: Potency
Method: (§2) The duration of beta-blockade was determined in vivo using pentobarbitalanesthetized dogs instrumented for measurement of heart rate using a Beckman® cardiotachometer triggered electronically by a phasic aortic blood pressure signal. Both vagus nerves were severed in the cervical region and the animals were mechanically ventilated. Two experimental designs were used. The first employed a 40-minute infusion of test compound and the second used a 3-hour infusion of test compound. In the 40-minute model, isoproterenol was infused into a foreleg vein at the rate of 0.5 μg/kg/min to induce a beta-receptor mediated tachycardia. Various doses of test compound where then infused into a femoral vein over a period of 40 minutes. This infusion was then terminated and recovery from blockade was quantitated. […] This cumulative dose is expressed as mg/kg and is an indication of potency. The time period required for 80% recovery of heart rate for each dose of test drug was also measured to quantitate duration of action. […] Test compounds were dissolved in 0.9% NaCl and infused at a rate of 0.05 ml/kg/min or less. In the 3-hour infusion model, bolus doses of isoproterenol (0.5 μg/kg) were used to assess the degree of beta-blockade and recovery from beta-blockade after termination of the infusion. The doses were spaced at 10-minute intervals and were given before, during and following the infusion of test compounds. The infusion rate was adjusted so that at the end of the 3-hour infusion period the degree of isoproterenol inhibition averaged about 50% of control.

[4] = test system: heart rate response to isoproterenol; assay: Duration of beta-blockade in vivo, anesthetized dogs, 3-hour infusion; settings: dog; for 80% Recovery Time: after termination of 3-hour infusion; for % I (Percent inhibition of heart rate response to isoproterenol): end of 3-hour infusion, bolus isoproterenol 0.5 μg/kg
Method: as §2

[5] = Disappearance in vitro in human whole blood; assay type: in vitro ADME; settings: 50 μg test compound, 37° C., read-out: T1/2 Human Whole Blood
Method: (§3) The rate of disappearance of a compound is expressed as the half-life (T1/2), which is the time period in which one half of the initial amount of compound tested disappears. […] The samples were incubated in a Dubnoff shaking metabolic incubator for 2.5, 5.0, 10.0, 20.0, 30.0 and 60.0 minutes at 37° C. At the designated time periods, the test mixtures were removed from the incubator and transferred to a 0° C. ice bath. Acetonitrile (2 ml) was immediately added and the mixtures were mixed to stop enzymatic hydrolysis. Zero time samples were prepared by adding 2 ml. of acetonitrile to denature the proteins prior to addition of the test compounds. After centrifugation to sediment denatured proteins, 2 ml. of the supernatant was removed and analyzed by high pressure liquid chromatography, using a mobile phase of 60% acetonitrile/40% 0.05 m sodium phosphate buffer (pH 6.6), a U.V. detector and Waters® μ Bondapak Phenyl column. The half life of each test compound was determined graphically by plotting the decrease in concentration as a function of time.

[6] = Disappearance in vitro in dog whole blood; assay type: in vitro ADME; settings: 50 μg test compound, 37° C., read-out: T1/2 Dog Whole Blood
Method: as §3

[7] = Disappearance in vitro in dog liver homogenate; assay type: in vitro ADME; settings: 50 μg test compound, 33% (w/v) liver homogenate, 37° C., read-out: T1/2 Dog Liver Homogenate
Method: as §3

[8] = test system: β-adrenergic receptors (guinea pig right atria); assay: β-blocking activity in vitro, guinea pig right atria (rate response to isoproterenol); assay type: cell-based; settings: ratio from pA2 atria and trachea; greater than one indicates cardioselectivity
Method: as §1

| Compound | pA2 Atria [1] | pA2 Trachea [2] | Recovery Times 50% [3] | Recovery Times 80% [3] | Recovery Times 100% [3] | ED50 [3] | 80% Recovery Time [4] | % I (Percent inhibition of heart rate response to isoproterenol) [4] | half-life [5] | half-life [6] | half-life [7] | Kb [1] | Cardioselectivity KB (Trachea)/KB (Atria) [8] | Kb [2] |
| --- | --- | --- | --- | --- | --- | --- | --- | --- | --- | --- | --- | --- | --- | --- |
| CC(C)NCC(O)COC(=O)c1ccccc1 (stereo not drawn) [Example VI, [3-(Isopropylamino)-2-hydroxy]propyl Benzoate Hydrochloride] | 6.3 | 7.2 | 7 ± 2 min | 14 ± 3 min | 21 ± 3 min | 3.4 ± 1.1 mg/kg | 26 ± 8 min | 63 ± 8% | 2.3 ± 0.6 min | 6.8 ± 2 min | 8 ± 3.5 min |  |  |  |
| CC(C)NCC(O)COC(=O)c1ccccc1Cl (stereo not drawn) [Example XII, [3-(Isopropylamino)-2-hydroxy]propyl 2-chlorobenzoate hydrochloride] |  |  | 19 min | 30 min | 51 min | 1.75 mg/kg |  |  | 1.7 ± 0.6 min | 28 ± 15 min | 12 ± 4 min |  |  |  |
| Cc1ccc(C(=O)OCC(O)CNC(C)C)cc1 (stereo not drawn) [Example X] |  |  | 11.0 min | 20 ± 2 min | 30.0 min | 3.1 ± 0.3 mg/kg |  |  | 6 min | 67 ± 24 min | 10 ± 4 min | 0.158 µM | 1 | 0.158 µM |
| Cc1ccccc1C(=O)OCC(O)CNC(C)C (stereo not drawn) [XVII] |  |  |  |  |  |  | > 60 min | 83% | > 180 min | > 180 min | 147 ± 69 min |  |  |  |
| COc1ccc(C(=O)OCC(O)CNC(C)C)cc1 (stereo not drawn) [XXIII] |  |  |  |  |  |  | > 60 min | 67 ± 6% | 55 ± 5 min | 150 ± 30 min | 37 ± 20 min | 1 µM |  | 0.501 µM |
| CC(C)(C)NCC(O)COC(=O)c1ccccc1F (stereo not drawn) [XXXIX] |  |  |  |  |  |  | 17 ± 3 min | 60 ± 2% | 1.4 ± 1 min | 6 ± 2 min | 17 ± 7 min | 0.158 µM |  | 0.01 µM |
| CC(C)(C)NCC(O)COC(=O)c1ccccc1Cl (stereo not drawn) [XXXVIII] |  |  |  |  |  |  |  | 67% | 6 ± 2 min | 30 ± 2 min | 68 ± 4 min |  |  |  |
